Laboratory results from US20240301409A1, “Chemically Modified Small Activating RNA” (RACTIGEN THERAPEUTICS, priority 2021, published 2024).
Oligonucleotides are written 5' to 3', each unit as a sugar letter and its base; * is a phosphorothioate linkage, no mark a phosphodiester; rarer units and linkages stand in square brackets, end groups in braces. Plain capitals give the bases only. m = 2'-O-methyl; r = 2'-OH (RNA); f = 2'-fluoro

What was measured:
Ku-7-LG cells = experiment: Cell cycle detection by flow cytometry in Ku-7-LG cells; assay type: cell-based, human; settings: 48 hours
Description: RAG1-40-31 and RAG1-40-53 were transfected into Ku-7-LG cells at the final concentrations of 0.1, 1, 10 and 50 nM, and the transfection duration was 48 hours. Two replicate wells were used for each treatment. After transfection, the cell cycle was analyzed by flow cytometry, and the collected data were analyzed by MotFit software.
After transfection, the supernatant was discarded to collect cells. To each well 500 μL PBS was added for one wash and then discarded. To each well 100 μL trypsin was further added. 900 μL medium was added to stop digestion before transferring to a 1.5 mL centrifuge tube. All the cells were collected through centrifugation (400 rcf, 5 min) and counted (2×10^5 cells/200 μL PBS). Cold 70% absolute ethanol was added before incubation overnight at 4° C. After washing twice with PBS, 200 μL Krishan buffer was added before incubation at 4° C. for 1 hour. After washing twice with PBS, the supernatant was discarded and 200 μL PBS was added for cell re-suspension, then the cells were transferred to a 96-well plate and analyzed by flow cytometer. The collected data were analyzed with MotFit software.
In order to study the mechanism of cellular proliferation suppression, change in cell cycle was analyzed using flow cytometry in this example. Randomly selected saRNAs RAG1-40-31 and RAG1-40-53 were transfected into Ku-7-LG cells at final concentrations of 0.1, 1, 10 and 50 nM, respectively, for 48 hours. Each treatment was set in duplicate. Cell cycle was detected and analyzed as described in the general protocol above.

p21 gene [1] = experiment: p21 mRNA expression by RT-qPCR in Ku-7-LG cells; assay type: cell-based, human; settings: 10 nM
Description: (§1) Ku-7-LG and T24 cells were transfected with the indicated saRNA at a final concentration of 10 nM for 3 days. After transfection, the RNA was extracted with the Qiagen RNeasy kit. After reverse transcription, the ABI 7500 fast real-time PCR system was used for qPCR amplification. The GAPDH gene was amplified as an internal reference. […] Dashed line indicates duplex Rag1-40 with no chemical modification in comparison, and the values above the line indicate stronger activity. The control was blank transfection without oligonucleotide. dsCon2 is transfected with a double-stranded scramble RNA. The value of the ordinate represents the mean±SD of 2 repeated treatments.
(§2) The control and dsCon2 were blank transfection and scramble dsRNA transfection, respectively. The values in the ordinate represent the mean±SD of 2 repeated treatments.
(§3) Human bladder cancer cells Ku-7-LG (ATCC), J82 (ATCC) and T24 (ATCC) were cultured in McCoy medium (Gibco) comprising 10% calf serum (Sigma-Aldrich) and 1% penicillin/Streptomycin (Gibco). Cells were cultured at 37° C. under 5% CO2. Ku-7-LG, J82 and T24 cells were plated into 12-well plates at 10×10^4 cells per well, transfected with the small RNA at a concentration of 10 nM (unless otherwise specified) for three days, using RNAiMax (Invitrogen, Carlsbad, CA) according to the manufacturer's instructions. Two replicate wells were set for each treatment.
(§4) After transfection, the medium was discarded and to each well 500 μl cell lysate was added and incubated at room temperature for 5 minutes. RNA was extracted with the Qiagen RNeasy kit, and after reverse transcription, qPCR analysis was performed on the ABI 7500 Fast Real-time PCR system (Applied Biosystems). Each sample was amplified in 3 replicate wells.
(§5) The PCR reaction conditions are: 95° C. for 30 seconds, 95° C. for 5 seconds, 60° C. for 30 seconds, and 40 cycles of amplification. The GAPDH gene was amplified as an internal reference at the same time. p21 was amplified with the p21F1/R1 primer pair, and the specific sequences of the amplification primers are shown in Table 1.
(§6) In order to calculate the expression value (Erel) of p21 (target gene) of a saRNA transfection sample relative to the control treatment, Formula 1 is used to input the Ct values of the target gene and the internal reference gene for calculation.
(§7) wherein, CtTm is the Ct value of the target gene from the control treatment sample; CtTs is the Ct value of the target gene from the saRNA treated sample; CtRm is the Ct value of the internal reference gene from the control treatment sample; and CtRs is the Ct value of the internal reference gene from the saRNA treated sample.
(§8) The main purpose of introducing chemical modifications to regulatory oligonucleotides of a gene is to improve their pharmaceutical properties, including enhancing in vivo stability and mitigating off-target effects (e.g., sequence-dependent targeting of unrelated genes, sequence-dependent or independent immune stimulation), while maintaining their gene regulatory capacity (gene knockdown or activation). To assess the effect of chemical modification on the RNAa activity of saRNA on the p21 gene, 10 nM unmodified (Rag1-40) and modified (Rag1-40-1 to Rag1-40-34) duplexes were transfected into Ku-7-LG and T24 cells, respectively. After 72 hours, the mRNA expression level of p21 was assessed by RT-qPCR. All duplexes induced p21 mRNA expression in all […] at least double that of the control.
(§9) In order to further evaluate the expression level of p21 mRNA after the different durations of treatment by the chemically modified saRNA duplexes, two saRNAs (RAG1-40-31 and RAG1-40-53) were randomly selected from the above chemically modified saRNA duplexes for detection. RAG1-40-31 and RAG1-40-53 were transfected into Ku-7-LG and T24 cells at a final concentration of 10 nM, for 1, 2, 3, 4, 7 and 9 days, respectively. Each treatment was set up in duplicate. […]

p21 gene [2] = experiment: p21 mRNA expression by RT-qPCR in T24 cells; assay type: cell-based, human; settings: 10 nM
Description: as §1, §2, §3, §4, §5, §6, §7, §8, §9

[3] = test system: Rag1-40 target sequence in the 3′ UTR of firefly luciferase, COS-1 cells; experiment: Analysis of off-target effects (pOff-Target dual luciferase reporter in COS-1 cells); settings: lysed 48 hours after transfection, luciferase activity
Description: A 26 bp fragment comprising the target site of Rag1-40 was cloned in the antisense orientation into the 3′ UTR region of the firefly luciferase gene in a pmirGLO dual luciferase vector. Vector plasmids were co-transfected with the indicated saRNAs into COS-1 cells. Cells were lysed 48 hours after transfection, and the resulting lysates were assessed for luciferase activity. Data represent mean±SD of at least two independent experiments. Dashed line represents comparisons to blank control (top dashed line) and Rag1-40 (bottom dashed line). Values close to the top dashed line indicate no off-target effect.
A 26 bp fragment comprising the Rag1-40 target sequence was cloned in the antisense orientation into a multiple cloning site (MCS) of the 3′ untranslated region of firefly luciferase of the pmirGLO dual luciferase vector (Promega, Fitchburg, WI), to obtain pOff-Target plasmid. Following E. coli transformation and overnight incubation, plasmids for each construct were prepared by standard method. Each plasmid was transfected into COS-1 monkey kidney epithelial cells using Lipofectamine 3000 (Invitrogen, Carlsbad, CA). Subsequently, saRNA was transfected using RNAiMAX. After 24 hours of incubation, COS-1 cells were lysed with 1× lysis buffer, and luciferase activity was measured using dual luciferase reporter gene assay system (Promega, WI, USA) following manufacturer's instructions.
To assess the off-target effects of unmodified and modified saRNAs, a sequence complementary to the sense oligonucleotide strand of Rag1-40 was cloned into the 3′UTR region of the luciferase gene in a pmirGLO dual luciferase vector. The vector plasmid was co-transfected with the saRNA into COS-1 cells. Cells were lysed 48 hours after transfection and the resulting lysates were assessed for luciferase activity.

RNase A = molecular target: T1, RNase A (Bos taurus, UniProt P61823); experiment: saRNA stability analysis in the presence of RNase A (agarose gel); settings: incubation 0 to 96 hours
T1 sequence (P61823 27-150): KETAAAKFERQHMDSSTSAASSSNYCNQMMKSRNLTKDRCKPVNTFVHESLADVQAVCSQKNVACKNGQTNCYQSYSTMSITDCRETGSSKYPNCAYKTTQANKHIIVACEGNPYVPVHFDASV
Description: The duplexes obtained at each time point above were each added to 1 μL of 10× loading buffer, and then frozen in liquid nitrogen. After incubation, all samples were detected for the double-stranded RNA by 4% agarose gel electrophoresis, and the content of each duplex was analyzed by Image J software.
The duplexes obtained at each time point indicated above were each added to 1 μL of 10× loading buffer, and then frozen in liquid nitrogen. After incubation, all samples were detected for the double-stranded RNA by 4% agarose gel electrophoresis, and the content of each duplex was analyzed by Image J software.
saRNA (1.5 μL, 10 μM) was incubated at a final concentration of 0.02 mg/mL in PBS in the presence of RNase A (Amresco, OH, USA) at 37° C. for different durations. At the end of the incubation, the mixture was snap frozen in liquid nitrogen to stop nuclease activity. Samples were analyzed on a 4% agarose gel and examined for duplex degradation.
All chemically modified duplexes (Rag1-40-1 to Rag1-40-32) were incubated with 0.02 μg/L of RNase A for different durations (0 to 96 hours). At the end of the incubation, the size and amount of duplexes were detected by agarose gel electrophoresis.

RAG1-40-53: saRNA duplex: sense mCmCAACfUCAfUfUCfUCCAAG*mU*mC (SEQ ID NO 24); antisense fUAfCfUfUGGAGAAfUGAGfUfUGG*fC*fA (SEQ ID NO 25) (sense CCAACUCAUUCUCCAAGUC; antisense UACUUGGAGAAUGAGUUGGCA; 2'-F, 2'-OMe, phosphorothioate modifications; modified_base (1)..(19) (1,2,18,19)=2′-O-methyl(2′-OMe); modified_base (6)..(12) (6,9,10,12)=2′-fluoro; modified_base (17)..(19) (17,18,19)=phosphorothioate (PS) backbone modification; modified_base (1)..(21) (1,3,4,5,12,16,17,20,21)=2′-fluoro; modified_base (20)..(21) (20,21)=phosphorothioate (PS) backbone modification)
percentage of cells in DNA anaphase/mitosis (G2/M) (Ku-7-LG cells; 0.1 nM): 7%
percentage of cells in DNA replication phase (S phase) (Ku-7-LG cells; 0.1 nM): 36%
percentage of cells in prophase of DNA synthesis (G0/G1) (Ku-7-LG cells; 0.1 nM): 57%
percentage of cells in DNA anaphase/mitosis (G2/M) (Ku-7-LG cells; 1 nM): 10%
percentage of cells in DNA replication phase (S phase) (Ku-7-LG cells; 1 nM): 24%
percentage of cells in prophase of DNA synthesis (G0/G1) (Ku-7-LG cells; 1 nM): 66%
percentage of cells in DNA anaphase/mitosis (G2/M) (Ku-7-LG cells; 10 nM): 9%
percentage of cells in DNA replication phase (S phase) (Ku-7-LG cells; 10 nM): 12%
percentage of cells in prophase of DNA synthesis (G0/G1) (Ku-7-LG cells; 10 nM): 79%
percentage of cells in DNA anaphase/mitosis (G2/M) (Ku-7-LG cells; 50 nM): 8%
percentage of cells in DNA replication phase (S phase) (Ku-7-LG cells; 50 nM): 16%
percentage of cells in prophase of DNA synthesis (G0/G1) (Ku-7-LG cells; 50 nM): 76%
increase of expression level of p21 mRNA compared with the control group (p21 gene [1]; 1 day): 1.4 fold
increase of expression level of p21 mRNA compared with the control group (p21 gene [1]; 2 days): 13.0 fold
increase of expression level of p21 mRNA compared with the control group (p21 gene [1]; 3 days): 9.1 fold
increase of expression level of p21 mRNA compared with the control group (p21 gene [1]; 4 days): 4.5 fold
increase of expression level of p21 mRNA compared with the control group (p21 gene [1]; 7 days): 3.2 fold
increase of expression level of p21 mRNA compared with the control group (p21 gene [1]; 9 days): 4.1 fold
increase of expression level of p21 mRNA compared with the control group (p21 gene [2]; 1 day): 2.2 fold
increase of expression level of p21 mRNA compared with the control group (p21 gene [2]; 2 days): 3.5 fold
increase of expression level of p21 mRNA compared with the control group (p21 gene [2]; 3 days): 7.8 fold
increase of expression level of p21 mRNA compared with the control group (p21 gene [2]; 4 days): 4.5 fold
increase of expression level of p21 mRNA compared with the control group (p21 gene [2]; 7 days): 1.2 fold
increase of expression level of p21 mRNA compared with the control group (p21 gene [2]; 9 days): 1.1 fold

Rag1-40-1: saRNA duplex: sense mCmCAACUCAUUCUCCAAGmUmC (SEQ ID NO 5); antisense fUAfCfUfUGGAGAAfUGAGfUfUGGfCA (SEQ ID NO 6) (sense CCAACUCAUUCUCCAAGUC; antisense UACUUGGAGAAUGAGUUGGCA; 2'-OMe and 2'-F modifications; modified_base (1)..(19) (1,2,18,19)=2′-O-methyl(2′-OMe); modified_base (1)..(20) (1,3,4,5,12,16,17,20)=2′-fluoro)
off-target effect compared to unmodified Rag1-40, in words [3]: completely inhibited
degradation of duplex at 96 hours (RNase A): little or no signs of degradation

Rag1-40-14: saRNA duplex: sense fCfCAACUCAUUCUCCAAGfUfC (SEQ ID NO 14); antisense fU*A*fCfUfUGGAGAAfUGAGfUfUGG*fC*A (SEQ ID NO 11) (sense CCAACUCAUUCUCCAAGUC; antisense UACUUGGAGAAUGAGUUGGCA; 2'-F modifications, phosphorothioates; modified_base (1)..(19) (1,2,18,19)=2′-fluoro; modified_base (1)..(21) (1,2,3,19,20,21)=phosphorothioate (PS) backbone modification; modified_base (1)..(20) (1,3,4,5,12,16,17,20)=2′-fluoro)
off-target effect compared to unmodified Rag1-40, in words [3]: mitigated or similar off-target effects
degradation of duplex at 96 hours (RNase A): little or no signs of degradation

Rag1-40-19: saRNA duplex: sense mCmCAACUCAUUCUCCAAG*U*C (SEQ ID NO 15); antisense fUmAfCfUfUmGmGmAmGmAmAfUmGmAmGfUfUmGmGfCmA (SEQ ID NO 8) (sense mCmCrArArCrUrCrArUrUrCrUrCrCrArArG*rU*rC)
off-target effect compared to unmodified Rag1-40, in words [3]: mitigated or similar off-target effects
degradation of duplex at 96 hours (RNase A): little or no signs of degradation
